Test results taken from PMC8878317, “Chemogenomics identifies acetyl-coenzyme A synthetase as a target for malaria treatment and prevention” (Cell Chemical Biology, 2022).

Key:
[1] = system: histone acetylation in P. falciparum 3D7-A10; assay: Histone acetylation Western blot, wild-type 3D7-A10; format: cell-based; conditions: trophozoites, 3 h exposure
Description: Synchronous trophozoite-stage (24-32hr post-invasion) cultures at 3–5% parasitemia and 2% hematocrit in complete medium were exposed to test compounds for 3 hr at 37°C. […] DMSO was tested at 0.1% as the vehicle-only control. Following drug exposure, parasites were isolated via saponin lysis ice-cold 0.1% saponin in phosphate-buffered saline (PBS). Isolated parasites were washed 3x in ice-cold PBS containing protease inhibitor cocktail (cOmplete mini, Roche) and lysed in 1x Laemmli Sample Buffer (Biorad) with 5% beta-mercaptoethanol (Sigma-Aldrich). Samples were heated at 99°C for 10 min before centrifugation. Equal quantities of solute were separated on Protean TGX Precast Gels (4–20% gradient) in Tris-SDS-glycine buffer, transferred to nitrocellulose membrane by iblot (Invitrogen), and blocked for 1h in tris-buffered saline (TBS) with 5% skim milk powder. Blocked membranes were probed with antibodies recognising tetra-acetylated H4 (H4ac4, Sigma-Aldrich 06–866), H4K8ac (CST #2594), H3K9ac (CST #9649) or H3 (CST #4499), at 1:1000 dilution, and PfBiP ([Shonhai et al., 2007]) (at 1:5000 dilution) in 3% milk powder TBS with 0.1% Tween 20 at 4°C overnight and with 800CW goat α-rabbit IgG (Licor) at 1:10,000 dilution. Membranes were visualised using a Licor Odyssey CLX imaging system and quantified using ImageJ.

[2] = system: P. falciparum 3D7 parasites; assay: Metabolomic profiling of compound-treated parasites (LC/MS); format: cell-based; design: Metabolite data: dTMP / Metabolite data: GMP / Metabolite data: S-Adenosyl-L-Homocysteine / Metabolite data: 1_3-Bisphosphoglyceric acid: scale not given here;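 as to Metabolite data: 3-Phosphoglycerate: Log2 fold change in abundance versus untreated parasite controls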;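 as to Metabolite data: Myo-Inositol: Log2 fold change in abundance versus untreated parasite controls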;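 as to Metabolite data: N-Carbamoyl-L-Aspartate: Log2 fold change in abundance versus untreated parasite controls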;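 as to Metabolite data: Nicotinate: Log2 fold change in abundance versus untreated parasite controls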
Method in brief: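 Magnetically purified trophozoites (1×10^8 parasites/mL) recovered 1 h in RPMI 1640, incubated a further 2.5 h, quenched in 90% methanol with labeled aspartate. Extracts analysed by reverse-phase C18 LC with negative-mode Orbitrap MS; peak areas normalized to internal standards, blank-subtracted and averaged by condition.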

SMILES: O=C1C(O)=C([C@H]2CC[C@H](c3ccc(Cl)cc3)CC2)C(=O)c2ccccc21 [Atovaquone, reference compound]
- acetylation of H4K8ac, H3K9ac and tetra-acetylated H4 (H4Ac4) histone markers relative to DMSO [1]: no effect
- Metabolite data: 1_3-Bisphosphoglyceric acid [2]: 0
- Metabolite data: 2_3-Diphosphoglyceric acid [2]: -0.24
- Metabolite data: 3-Phosphoglycerate [2]: 0
- Metabolite data: 4-Aminobutyrate [2]: 0.16
- Metabolite data: 4-Phosphopantothenate [2]: -0.34
- Metabolite data: 4-phosphopantetheine [2]: 0
- Metabolite data: 5-aminopentanoic acid [2]: 0
- Metabolite data: 5-phosphoribosyl-1-pyrophosphate [2]: 0
- Metabolite data: 6-Phospho-D-Gluconate [2]: 0.06
- Metabolite data: ADP-D-Glucose [2]: 0.04
- Metabolite data: Acetyl-CoA [2]: -0.68
- Metabolite data: Acetyllysine [2]: -0.01
- Metabolite data: Aconitate [2]: 0.31
- Metabolite data: CDP [2]: -0.84
- Metabolite data: CDP-Ethanolamine [2]: -0.15
- Metabolite data: CDP-choline [2]: 0
- Metabolite data: CMP [2]: -0.8
- Metabolite data: CTP [2]: -0.85
- Metabolite data: Citrate/Isocitrate [2]: -0.17
- Metabolite data: Cyclic-AMP [2]: 0.13
- Metabolite data: Dihydroorotate [2]: 4.84
- Metabolite data: FAD [2]: 0.09
- Metabolite data: FMN [2]: -1.11
- Metabolite data: Fructose-1,6-Bisphosphate [2]: 0.15
- Metabolite data: Fumarate [2]: 0.18
- Metabolite data: GDP [2]: -0.12
- Metabolite data: GMP [2]: 0.4
- Metabolite data: GTP [2]: 0.09
- Metabolite data: Glucose-1/6-Phosphate [2]: -0.03
- Metabolite data: Glutathione Disulfide [2]: 0.11
- Metabolite data: Hexose [2]: 0
- Metabolite data: Hydroxyisocaproic acid [2]: 0
- Metabolite data: Indole [2]: 0.06
- Metabolite data: Ketoleucine [2]: 0
- Metabolite data: L-arginino-succinate [2]: 0
- Metabolite data: Lactate [2]: 0.09
- Metabolite data: Malate [2]: 0.05
- Metabolite data: Myo-Inositol [2]: -0.06
- Metabolite data: N-Acetyl-Glutamate [2]: 0.13
- Metabolite data: N-Acetyl-L-Alanine [2]: 0.22
- Metabolite data: N-Acetyl-L-Ornithine [2]: -0.16
- Metabolite data: N-Carbamoyl-L-Aspartate [2]: 4.58
- Metabolite data: NAD+ [2]: 0.08
- Metabolite data: NADH [2]: 1.7
- Metabolite data: NADP+ [2]: -0.1
- Metabolite data: NADPH [2]: 0.32
- Metabolite data: Nicotinate [2]: -0.09
- Metabolite data: Octulose 8/1-Phosphate [2]: -0.01
- Metabolite data: Orotate [2]: 0.81
- Metabolite data: PD [2]: 0
- Metabolite data: PE [2]: 0
- Metabolite data: PEEK [2]: 0
- Metabolite data: Phenol Red [2]: 0
- Metabolite data: Pyroglutamic acid [2]: 0.06
- Metabolite data: S-Adenosyl-L-Homocysteine [2]: 0.32
- Metabolite data: S-methyl-5'-thioadenosine [2]: -0.26
- Metabolite data: SD [2]: 0
- Metabolite data: Sedoheptulose Bisphosphate [2]: 0.01
- Metabolite data: UDP [2]: -1.17
- Metabolite data: UDP-D-Glucose [2]: -0.06
- Metabolite data: UDP-D-Glucuronate [2]: -0.13
- Metabolite data: UDP-N-Acetyl-Glucosamine [2]: -0.25
- Metabolite data: UMP [2]: -0.68
- Metabolite data: UTP [2]: -1.12
- Metabolite data: a-ketoglutarate [2]: -0.04
- Metabolite data: acetyl-aspartate [2]: 0
- Metabolite data: arginine [2]: 0
- Metabolite data: asparagine [2]: 0
- Metabolite data: aspartate [2]: 0
- Metabolite data: biotin [2]: 0
- Metabolite data: chlorpropamide [2]: 0
- Metabolite data: coenzyme A [2]: 0
- Metabolite data: dAMP [2]: -0.09
- Metabolite data: dATP [2]: 0.28
- Metabolite data: dCDP [2]: -0.01
- Metabolite data: dCMP [2]: -0.39
- Metabolite data: dCTP [2]: -0.38
- Metabolite data: dGDP/ADP [2]: 0
- Metabolite data: dGMP/AMP [2]: -0.1
- Metabolite data: dGTP/ATP [2]: 0
- Metabolite data: dTDP [2]: -0.95
- Metabolite data: dTMP [2]: -0.81
- Metabolite data: dTTP [2]: -0.98
- Metabolite data: folate [2]: 0
- Metabolite data: glucono-lactone [2]: 0
- Metabolite data: glutamate [2]: 0
- Metabolite data: glutamine [2]: 0
- Metabolite data: glutathione [2]: 0
- Metabolite data: histidine [2]: 0
- Metabolite data: hydroxyproline/Aminolevulinate [2]: 0
- Metabolite data: isoleucine [2]: 0
- Metabolite data: leucine [2]: 0
- Metabolite data: maleic acid [2]: 0
- Metabolite data: methionine [2]: 0
- Metabolite data: nicotinamide mononucleotide [2]: 0
- Metabolite data: orotidine-5'-phosphate [2]: 0
